Assay results taken from ChEMBL document CHEMBL4715723, “Discovery and development of benzo-[1,2,4]-triazolo-[1,4]-oxazepine GPR142 agonists for the treatment of diabetes” (Bioorg Med Chem Lett, 2016).
Activity calls are given as the source filed them. No cut-off for these calls is given here.

Experiments:
[1] = biological target: T1, Probable G-protein coupled receptor 142 (Mus musculus, UniProt Q7TQN9); test: Agonist activity at mouse GPR142 expressed in CHO cells measured for 3 mins by Fluo-4M dye based FLIPR assay; assay type: cell-based; details: read-out: IC50 (the source's name)
T1 sequence (Q7TQN9 whole entry): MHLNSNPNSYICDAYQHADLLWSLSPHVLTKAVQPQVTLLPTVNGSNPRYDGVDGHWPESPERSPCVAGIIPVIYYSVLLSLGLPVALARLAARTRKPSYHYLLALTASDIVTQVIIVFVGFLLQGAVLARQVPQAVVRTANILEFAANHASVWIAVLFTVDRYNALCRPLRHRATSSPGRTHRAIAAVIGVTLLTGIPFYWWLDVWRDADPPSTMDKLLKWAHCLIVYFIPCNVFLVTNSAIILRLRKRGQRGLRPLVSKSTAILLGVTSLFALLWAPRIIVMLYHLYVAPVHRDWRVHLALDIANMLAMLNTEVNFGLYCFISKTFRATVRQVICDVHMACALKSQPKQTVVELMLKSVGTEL

[2] = biological target: T2, Probable G-protein coupled receptor 142 (Homo sapiens, UniProt Q7Z601); test: Agonist activity at human GPR142 expressed in CHO cells measured for 3 mins by Fluo-4M dye based FLIPR assay; assay type: cell-based; details: read-out: IC50 (the source's name)
T2 sequence (Q7Z601 whole entry): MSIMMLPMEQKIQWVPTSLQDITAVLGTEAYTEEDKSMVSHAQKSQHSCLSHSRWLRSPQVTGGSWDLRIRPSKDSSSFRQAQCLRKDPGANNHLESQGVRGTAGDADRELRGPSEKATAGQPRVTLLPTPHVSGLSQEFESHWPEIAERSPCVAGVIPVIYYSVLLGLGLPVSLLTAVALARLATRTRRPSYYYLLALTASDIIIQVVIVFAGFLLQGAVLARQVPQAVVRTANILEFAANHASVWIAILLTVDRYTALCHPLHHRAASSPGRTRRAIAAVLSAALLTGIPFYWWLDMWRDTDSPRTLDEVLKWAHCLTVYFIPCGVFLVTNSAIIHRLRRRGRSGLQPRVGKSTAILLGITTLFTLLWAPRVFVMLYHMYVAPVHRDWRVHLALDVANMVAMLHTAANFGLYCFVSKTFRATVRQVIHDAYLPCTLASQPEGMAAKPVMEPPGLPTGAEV

[3] = Protein binding in rat plasma assessed as unbound fraction; assay type: ADME, cell-free
Cytochrome P450 3A4 = Cytochrome P450 3A4 (Homo sapiens, UniProt P08684); test: Inhibition of human liver microsomes CYP3A4 using testosterone as substrate by MUX-MS/MS analysis; assay type: ADME, Microsome
[4] = Half life in rat at 2 mg/kg, po or 1 mg/kg, iv; assay type: ADME, organism-based; details: in vivo
Cytochrome P450 2C9 = Cytochrome P450 2C9 (Homo sapiens, UniProt P11712); test: Inhibition of human liver microsomes CYP2C9 using diclofenac as substrate by MUX-MS/MS analysis; assay type: ADME, Microsome
Cytochrome P450 2D6 = Cytochrome P450 2D6 (Homo sapiens, UniProt P10635); test: Inhibition of human liver microsomes CYP2D6 using dextromethorphan as substrate by MUX-MS/MS analysis; assay type: ADME, Microsome
[5] = Clearance in rat at 2 mg/kg, po or 1 mg/kg, iv; assay type: ADME, organism-based; details: in vivo
[6] = biological target: Voltage-gated inwardly rectifying potassium channel KCNH2 (Homo sapiens, UniProt Q12809); test: Inhibition of human ERG expressed in HEK293 cells assessed as reduction in S35-MK-0499 binding; assay type: cell-based
[7] = Volume of distribution at steady state in rat at 2 mg/kg, po or 1 mg/kg, iv; assay type: ADME, organism-based; details: in vivo, read-out: Vdss
[8] = Oral bioavailability in rat at 2 mg/kg; assay type: ADME, organism-based; details: in vivo
Mus musculus [9] = test: Antidiabetic activity in […] mouse harboring GPR142 deficient assessed as reduction in dextrose-induced blood glucose peak at 30 mg/kg, po administered before dextrose stimulation and measured upto 120 mins after dextrose administration by OGTT assay; assay type: functional, organism-based; details: time min <=120
Mus musculus [10] = test: Antidiabetic activity in […] mouse assessed as reduction in dextrose-induced blood glucose peak administered po before dextrose stimulation and measured upto 120 mins after dextrose administration by OGTT assay; assay type: functional, organism-based; details: time min <=120

Cytochrome P450 3A4, sequence (P08684 whole entry): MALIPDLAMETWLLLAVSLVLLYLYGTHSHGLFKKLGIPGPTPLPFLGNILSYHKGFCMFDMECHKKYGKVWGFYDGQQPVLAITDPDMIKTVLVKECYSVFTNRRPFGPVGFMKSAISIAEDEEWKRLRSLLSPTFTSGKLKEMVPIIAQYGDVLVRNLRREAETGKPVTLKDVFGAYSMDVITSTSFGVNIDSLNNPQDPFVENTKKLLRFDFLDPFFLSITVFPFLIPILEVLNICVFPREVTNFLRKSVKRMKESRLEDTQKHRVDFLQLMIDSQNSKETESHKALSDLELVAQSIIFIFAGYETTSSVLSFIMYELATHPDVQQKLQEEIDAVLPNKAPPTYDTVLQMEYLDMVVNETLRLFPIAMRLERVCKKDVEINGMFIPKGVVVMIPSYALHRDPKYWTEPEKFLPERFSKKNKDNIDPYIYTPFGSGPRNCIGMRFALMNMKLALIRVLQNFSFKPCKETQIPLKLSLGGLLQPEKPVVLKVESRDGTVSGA
Cytochrome P450 2D6, sequence (P10635 whole entry): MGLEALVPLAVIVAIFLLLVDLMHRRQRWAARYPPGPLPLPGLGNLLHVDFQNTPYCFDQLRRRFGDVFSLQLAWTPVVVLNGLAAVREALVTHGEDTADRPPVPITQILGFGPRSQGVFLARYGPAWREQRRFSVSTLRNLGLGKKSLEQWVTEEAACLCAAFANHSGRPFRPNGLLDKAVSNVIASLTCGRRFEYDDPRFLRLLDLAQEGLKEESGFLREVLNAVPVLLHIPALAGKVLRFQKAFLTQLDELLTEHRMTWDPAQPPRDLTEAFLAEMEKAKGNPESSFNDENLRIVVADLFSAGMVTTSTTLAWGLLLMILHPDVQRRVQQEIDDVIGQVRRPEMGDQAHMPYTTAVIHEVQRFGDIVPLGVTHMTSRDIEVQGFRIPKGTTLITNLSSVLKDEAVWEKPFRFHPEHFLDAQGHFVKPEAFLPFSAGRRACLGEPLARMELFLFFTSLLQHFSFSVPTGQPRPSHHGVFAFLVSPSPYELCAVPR
Voltage-gated inwardly rectifying potassium channel KCNH2, sequence (Q12809 whole entry): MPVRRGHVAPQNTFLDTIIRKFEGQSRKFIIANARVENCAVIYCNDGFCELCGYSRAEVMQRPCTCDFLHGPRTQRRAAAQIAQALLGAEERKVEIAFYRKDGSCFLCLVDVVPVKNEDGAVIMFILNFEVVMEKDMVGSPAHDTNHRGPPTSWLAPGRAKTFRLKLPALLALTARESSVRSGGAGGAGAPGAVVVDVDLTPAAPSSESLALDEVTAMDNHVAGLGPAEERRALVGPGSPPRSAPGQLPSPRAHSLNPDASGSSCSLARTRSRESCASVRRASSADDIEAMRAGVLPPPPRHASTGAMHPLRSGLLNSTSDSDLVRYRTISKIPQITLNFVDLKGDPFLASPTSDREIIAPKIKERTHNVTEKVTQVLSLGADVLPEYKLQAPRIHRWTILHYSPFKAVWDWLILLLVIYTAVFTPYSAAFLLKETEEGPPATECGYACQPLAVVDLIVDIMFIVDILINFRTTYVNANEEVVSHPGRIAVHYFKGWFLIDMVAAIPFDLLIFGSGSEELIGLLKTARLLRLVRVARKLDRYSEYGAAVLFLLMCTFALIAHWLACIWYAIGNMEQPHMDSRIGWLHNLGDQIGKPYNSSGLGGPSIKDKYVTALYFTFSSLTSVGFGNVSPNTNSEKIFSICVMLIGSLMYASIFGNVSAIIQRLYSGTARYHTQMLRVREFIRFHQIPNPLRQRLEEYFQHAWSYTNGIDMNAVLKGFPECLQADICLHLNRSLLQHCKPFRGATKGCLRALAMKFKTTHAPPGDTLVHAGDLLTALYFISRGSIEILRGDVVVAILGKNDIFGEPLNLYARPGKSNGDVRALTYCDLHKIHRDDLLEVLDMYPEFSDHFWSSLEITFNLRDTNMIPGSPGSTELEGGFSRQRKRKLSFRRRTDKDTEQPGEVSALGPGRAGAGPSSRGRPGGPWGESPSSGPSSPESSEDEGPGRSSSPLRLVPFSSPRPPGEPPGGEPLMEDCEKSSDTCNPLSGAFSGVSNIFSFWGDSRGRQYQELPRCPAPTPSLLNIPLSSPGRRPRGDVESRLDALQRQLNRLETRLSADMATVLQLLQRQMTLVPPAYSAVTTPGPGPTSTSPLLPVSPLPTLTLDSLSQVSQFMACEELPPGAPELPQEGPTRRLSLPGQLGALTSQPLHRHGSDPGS
Cytochrome P450 2C9, sequence (P11712 whole entry): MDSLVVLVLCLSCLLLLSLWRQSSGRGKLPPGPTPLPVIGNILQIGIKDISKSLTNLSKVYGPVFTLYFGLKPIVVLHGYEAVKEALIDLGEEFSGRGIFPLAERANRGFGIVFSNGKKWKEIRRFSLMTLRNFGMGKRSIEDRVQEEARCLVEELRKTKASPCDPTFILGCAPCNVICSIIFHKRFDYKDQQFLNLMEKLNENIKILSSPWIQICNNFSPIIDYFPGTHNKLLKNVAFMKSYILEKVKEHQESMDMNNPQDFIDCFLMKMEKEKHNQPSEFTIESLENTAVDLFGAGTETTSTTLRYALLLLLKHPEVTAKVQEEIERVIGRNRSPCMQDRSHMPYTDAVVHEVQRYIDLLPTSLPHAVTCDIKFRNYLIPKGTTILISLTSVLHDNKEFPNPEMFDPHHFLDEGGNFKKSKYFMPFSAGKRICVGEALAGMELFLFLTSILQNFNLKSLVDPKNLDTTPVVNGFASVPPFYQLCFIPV

Row | Structure (SMILES) | EC50 [1] | EC50 [2] | also measured
1 | COc1cccc(NC(=O)N2CCOc3ccc(-c4ccnc(OC)c4)cc3C2)c1 | 2570 nM | 2800 nM | 
2 | COc1cccc(NC(=O)N2CCOc3ccc(-c4ccnc5ccccc45)cc3C2)c1 | 216 nM | 962 nM | 
3 | CCCCN1CCN(C(=O)Nc2ccc(Cl)c(Cl)c2)Cc2cc(-c3ccncc3)ccc21 | 4500 nM | > 20000 nM | 
4 | O=C(Nc1cccc(-c2ccccc2)c1)N1CCOc2ccc(-c3ccncc3)cc2C1 | 62 nM | 343 nM | 
5 | COc1cccc(NC(=O)N2CCOc3ccc(-c4ccncn4)cc3C2)c1 |  | 1600 nM | 
6 | O=C(Nc1cccc(Cl)c1F)N1CCOc2ccc(-c3ccncc3)cc2C1 | 59 nM | 163 nM | 
7 | O=C(Nc1ccc(Cl)c(Cl)c1)N1CCNc2ccc(-c3ccncc3)cc2C1 | 158 nM | 146 nM | 
8 | O=C(Nc1cccc(C(F)(F)F)c1)N1CCOc2ccc(-c3ccncc3)cc2C1 | 110 nM | 158 nM | 
9 | Cc1cc(-c2ccc3c(c2)-c2nnc(Nc4cccc(OC(F)(F)F)c4)n2CCO3)ccn1 |  | 45 nM | fraction unbound [3]: 0.0949; IC50 (Cytochrome P450 3A4): > 50000 nM; half-life [4]: 2 h; IC50 (Cytochrome P450 2C9): 1390 nM; IC50 (Cytochrome P450 2D6): 1720 nM; clearance [5]: 11 mL/min/kg; IC50 [6]: 236 nM; Vd [7]: 1.9 L/kg
10 | O=C(Nc1cccc(Cl)c1Cl)N1CCOc2ccc(-c3ccncc3)cc2C1 | 157 nM | 708 nM | 
11 | COc1cccc(NC(=O)N2CCOc3ccc(-c4ccncc4)cc3C2)c1 | 305 nM | 249 nM | 
12 | O=C(Nc1cccc(F)c1)N1CCOc2ccc(-c3ccncc3)cc2C1 | 413 nM | 224 nM | 
13 | N#Cc1cccc(NC(=O)N2CCOc3ccc(-n4ccnc4)cc3C2)c1 |  | 110 nM | 
14 | O=C(Nc1ccc(Cl)c(Cl)c1)N1CCCc2ccc(-c3ccncc3)cc2C1 | 590 nM | 839 nM | 
15 | N#Cc1cccc(NC(=O)N2CCOc3ccc(-c4ccncc4)cc3C2)c1 | 79 nM | 80 nM | 
16 | N#Cc1cccc(NC(=O)N2CCOc3ccc(-c4ccnc(N)c4)cc3C2)c1 | 448 nM | 810 nM | 
17 | O=C(Nc1ccc(Cl)c(Cl)c1)N1CCOc2ccc(-c3ccncc3)cc2C1 | 138 nM | 140 nM | fraction unbound [3]: 0.0015; half-life [4]: 0.71 h; IC50 (Cytochrome P450 2D6): 76000 nM; clearance [5]: 88.6 mL/min/kg; IC50 ([6]; hek293): 2030 nM; bioavailability [8]: 6%; Vd [7]: 3.4 L/kg
18 | O=C(Nc1ccccc1)N1CCOc2ccc(-c3ccncc3)cc2C1 | 851 nM | 793 nM | 
19 | O=C(Nc1ccc(F)c(Cl)c1)N1CCOc2ccc(-c3ccncc3)cc2C1 | 613 nM | 132 nM | 
20 | O=C(Nc1ccc(Cl)c(Cl)c1)N1CCCc2ccc(-c3ccncc3)cc21 | > 20000 nM | > 20000 nM | 
21 | COc1ccccc1NC(=O)N1CCOc2ccc(-c3ccncc3)cc2C1 | 92 nM | 517 nM | 
22 | Cc1cc(-c2ccc3c(c2)-c2nnc(Nc4cccc(C(F)(F)F)c4)n2CCO3)ccn1 |  | 63 nM | IC50 (Cytochrome P450 3A4): 48300 nM; IC50 (Cytochrome P450 2C9): 1960 nM; IC50 (Cytochrome P450 2D6): 326 nM; IC50 [6]: 388 nM
23 | FC(F)(F)Oc1cccc(Nc2nnc3n2CCOc2ccc(-c4ccncc4)cc2-3)c1 |  | 63 nM | fraction unbound [3]: 0.0041; IC50 (Cytochrome P450 3A4): 1610 nM; half-life [4]: 1 h; IC50 (Cytochrome P450 2C9): 934 nM; IC50 (Cytochrome P450 2D6): 802 nM; Activity (Mus musculus [9]): inactive; clearance [5]: 23.9 mL/min/kg; Activity (Mus musculus [10]): Dose-dependent effect; IC50 [6]: 605 nM; bioavailability [8]: 40%; Vd [7]: 2.2 L/kg
